Results on 1 molecule are retold here after patent US4869900A, “Pharamaceutical composition containing ubidecarenone” (Zambon S.p.A., priority 1985, dated 1989).

Series [1] concerns cardiac affections such as cardiac deficiency, ischemic disease. As to conditions: treatment of several cardiac affections such as cardiac deficiency; cited from earlier work.
The conditions of series [2]: takes place through the lymphatic system; cited from earlier work.
The nature of series [3]: Stability of CoQ10 in the compositions (one year at 30° C.). In kind it is physicochemical. As to conditions: after one year at 30° C., in the compositions or pharmaceutical preparations according to the invention.

Take `COC1=C(OC)C(=O)C(C/C=C(\C)CC/C=C(\C)CC/C=C(\C)CC/C=C(\C)CC/C=C(\C)CC/C=C(\C)CC/C=C(\C)CC/C=C(\C)CC/C=C(\C)CCC=C(C)C)=C(C)C1=O` [CoQ10, Coenzyme Q10]: the clinical effectiveness result in series [1] is reported as “clinically effective”. For the same molecule, the absorption result in series [2] is on record as “scarce”. For the same molecule, the “degradation of CoQ10” value in series [3] was “no degradation”.
